Data from patent publication US20170121315A1, “HETEROBICYCLICALLY SUBSTITUTED 4-OXOBUTANE ACID DERIVATIVES AND USE THEREOF” (priority 2014, published 2017).

Key:
Format in all cases: biochemical
MMP-7 = molecular target: T1, MMP-7 (Homo sapiens, UniProt P09237); assay: In vitro MMP-7 inhibition test; conditions: human MMP-7
T1 construct: purchased R&D Systems 907-MP
T1 sequence (P09237 95-267): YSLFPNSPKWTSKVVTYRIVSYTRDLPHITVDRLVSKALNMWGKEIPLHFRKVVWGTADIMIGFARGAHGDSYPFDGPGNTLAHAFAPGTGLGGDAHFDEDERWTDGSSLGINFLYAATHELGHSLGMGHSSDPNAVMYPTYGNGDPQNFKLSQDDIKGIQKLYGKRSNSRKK
Source text: (§1) The MMP-mediated amidolytic cleavage of a suitable peptide substrate leads to an increase in fluorescent light here too. The signal intensity of the fluorescent light is directly proportional to the enzyme activity. The active concentration of a test compound at which half the enzyme is inhibited (50% signal intensity of the fluorescent light) is reported as the IC50 value.
(§2) Recombinant MMP-7 (from R&D Systems, 907-MP) is chemically activated in accordance with the manufacturer's instructions using APMA. 1 μl of the test compound to be analysed (as a solution in DMSO, suitable concentrations e.g. 1 nM to 30 μM) is pipetted into 24 μl of activated enzyme (final concentration e.g. 0.5 nM) in reaction buffer (50 mM Tris/HCl pH 7.5, 10 mM CaCl2, 150 mM NaCl, 0.05% Brij®-35) in a white 384-hole microtiter plate (MTP). The enzymatic reaction is started by adding the intramolecularly quenched Mca-Pro-Leu-Gly-Leu-Dpa(Dnp)-Ala-Arg-NH2 substrate (final concentration e.g. 10 μM; R&D Systems, ES-001), so as to result in a total test volume of 50 μl. The course of the MMP-7 reaction is measured by measuring the fluorescence intensity (excitation 320 nm, emission 410 nm) over a suitable period of time (e.g. over 120 min at a temperature of 32° C.).

MMP-8 = molecular target: T2, MMP-8 (Homo sapiens, UniProt P22894); assay: In vitro MMP-8 inhibition test; conditions: human MMP-8
T2 construct: purchased R&D Systems 908-MP
Source text: as §1
as §2, with “MMP-8 (R&D” for “MMP-7 (from R&D”, “908-MP)” for “907-MP)”, “MMP-8” for “MMP-7”

MMP-10 = molecular target: T3, MMP-10 (Homo sapiens, UniProt P09238); assay: In vitro MMP-10 inhibition test; conditions: human MMP-10
T3 construct: purchased R&D Systems 910-MP
Source text: as §1
as §2, with “MMP-10 (R&D” for “MMP-7 (from R&D”, “910-MP)” for “907-MP)”, “2” for “0.5”, “Mca-Arg-Pro-Lys-Pro-Val-Glu-Nval-Trp-Arg-Lys(Dnp)-NH2” for “Mca-Pro-Leu-Gly-Leu-Dpa(Dnp)-Ala-Arg-NH2”, “ES-002),” for “ES-001),”, “MMP-10” for “MMP-7”

MMP-2 = molecular target: T4, MMP-2 (Homo sapiens, UniProt P08253); assay: In vitro MMP-2 inhibition test; conditions: human MMP-2
T4 construct: purchased R&D Systems 902-MP
T4 sequence (P08253 110-660): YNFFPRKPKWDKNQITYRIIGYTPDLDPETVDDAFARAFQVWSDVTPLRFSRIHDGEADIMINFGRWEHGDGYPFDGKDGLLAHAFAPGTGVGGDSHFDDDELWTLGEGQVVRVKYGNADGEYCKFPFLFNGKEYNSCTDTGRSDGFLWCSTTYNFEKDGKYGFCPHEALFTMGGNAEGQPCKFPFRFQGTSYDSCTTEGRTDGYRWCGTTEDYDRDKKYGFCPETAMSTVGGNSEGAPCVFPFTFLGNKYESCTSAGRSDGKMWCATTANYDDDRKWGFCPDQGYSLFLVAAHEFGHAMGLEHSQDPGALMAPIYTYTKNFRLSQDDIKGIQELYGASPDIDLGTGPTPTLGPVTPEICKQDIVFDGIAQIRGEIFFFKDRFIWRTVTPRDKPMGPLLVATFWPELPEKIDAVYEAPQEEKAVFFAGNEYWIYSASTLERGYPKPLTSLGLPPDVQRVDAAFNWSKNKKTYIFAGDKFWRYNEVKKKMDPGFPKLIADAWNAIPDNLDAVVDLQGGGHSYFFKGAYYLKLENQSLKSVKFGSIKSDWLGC
Source text: as §1
as §2, with “MMP-2 (R&D” for “MMP-7 (from R&D”, “902-MP)” for “907-MP)”, “2” for “0.5”, “MMP-2” for “MMP-7”

T3 sequence (P09238 99-476): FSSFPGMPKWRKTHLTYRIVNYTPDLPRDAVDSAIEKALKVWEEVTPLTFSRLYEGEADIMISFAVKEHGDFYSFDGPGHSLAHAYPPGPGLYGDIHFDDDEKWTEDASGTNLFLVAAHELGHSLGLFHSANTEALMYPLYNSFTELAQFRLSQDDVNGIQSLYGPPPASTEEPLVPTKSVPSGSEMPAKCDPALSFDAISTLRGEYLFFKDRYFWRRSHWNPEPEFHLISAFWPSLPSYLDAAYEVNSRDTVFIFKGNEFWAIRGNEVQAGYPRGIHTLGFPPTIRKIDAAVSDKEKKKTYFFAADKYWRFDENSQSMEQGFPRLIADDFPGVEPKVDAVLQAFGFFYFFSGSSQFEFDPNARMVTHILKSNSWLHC
T2 sequence (P22894 101-467): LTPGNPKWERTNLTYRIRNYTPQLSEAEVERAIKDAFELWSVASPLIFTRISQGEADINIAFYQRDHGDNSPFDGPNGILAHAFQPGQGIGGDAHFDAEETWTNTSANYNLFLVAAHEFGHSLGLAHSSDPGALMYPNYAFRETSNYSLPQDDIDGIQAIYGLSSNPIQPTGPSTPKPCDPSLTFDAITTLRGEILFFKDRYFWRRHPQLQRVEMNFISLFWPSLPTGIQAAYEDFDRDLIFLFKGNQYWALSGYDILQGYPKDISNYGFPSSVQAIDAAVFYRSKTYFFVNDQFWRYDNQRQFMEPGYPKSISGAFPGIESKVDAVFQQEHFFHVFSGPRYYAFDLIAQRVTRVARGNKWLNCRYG

Row | IC50 (MMP-7) [µM] | IC50 (MMP-8) [µM] | IC50 (MMP-10) [µM] | IC50 (MMP-2) [µM] | SMILES
1 | > 40 | 35 | > 40 | 4.4 | CCCCCCCOc1ccc2oc(C(=O)CC(CCn3nnc4ccccc4c3=O)C(=O)O)cc2c1 (racemic) [Example 31, (+/−)-4-[5-(Heptyloxy)-1-benzofur-2-yl]-4-oxo-2-[2-(4-oxo-1,2,3-benzotriazin-3(4H)-yl)ethyl]butanoic acid]
2 | > 40 | 12 | 29 | 3.3 | O=C(CC(CCn1nnc2ccccc2c1=O)C(=O)O)c1cc2cc(OCCCc3ccccc3)ccc2o1 (racemic) [Example 37, (+/−)-4-Oxo-2-[2-(4-oxo-1,2,3-benzotriazin-3(4H)-yl)ethyl]-4-[5-(3-phenylpropoxy)-1-benzofur-2-yl]butanoic acid]
3 | > 40 | 28 | 29 | > 40 | O=C(CC(CCn1nnc2ccccc2c1=O)C(=O)O)c1cc2cc(OCc3ccc(C(F)(F)F)cc3)ccc2o1 (racemic) [Example 44, (+/−)-4-Oxo-2-[2-(4-oxo-1,2,3-benzotriazin-3(4H)-yl)ethyl]-4-(5-{[4-(trifluoromethyl)benzyl]oxy}-1-benzofur-2-yl)butanoic acid]
4 | > 40 | 36 | 20 | 3.8 | O=C(CC(CCn1nnc2ccccc2c1=O)C(=O)O)c1cc2cc(OCc3cccc(Cl)c3)ccc2o1 (racemic) [Example 50, (+/−)-4-{5-[(3-Chlorobenzyl)oxy]-1-benzofur-2-yl}-4-oxo-2-[2-(4-oxo-1,2,3-benzotriazin-3(4H)-yl)ethyl]butanoic acid]
5 | 35 | 34 | 36 | 19 | Cc1cccc(COc2ccc3oc(C(=O)CC(CCn4nnc5ccccc5c4=O)C(=O)O)cc3c2)c1 (racemic) [Example 51, (+/−)-4-{5-[(3-Methylbenzyl)oxy]-1-benzofur-2-yl}-4-oxo-2-[2-(4-oxo-1,2,3-benzotriazin-3(4H)-yl)ethyl]butanoic acid]
6 | > 40 | 10 | > 40 | 10 | CCCOc1ccc2cc(C(=O)CC(CCn3nnc4ccccc4c3=O)C(=O)O)oc2c1 (racemic) [Example 58, (+/−)-4-Oxo-2-[2-(4-oxo-1,2,3-benzotriazin-3(4H)-yl)ethyl]-4-(6-propoxy-1-benzofur-2-yl)butanoic acid]
7 | > 40 | > 40 | > 40 | > 40 | O=C(CC(CCn1nnc2ccccc2c1=O)C(=O)O)c1cc2ccc(OCCCC3CCCCC3)cc2o1 (racemic) [Example 71, (+/−)-4-[6-(3-Cyclohexylpropoxy)-1-benzofur-2-yl]-4-oxo-2-[2-(4-oxo-1,2,3-benzotriazin-3(4H)-yl)ethyl]butanoic acid]
8 | > 40 | > 40 | > 40 | 1.3 | O=C(CC(CCn1nnc2ccccc2c1=O)C(=O)O)c1cc2ccc(OCCc3ccccc3)cc2o1 (racemic) [Example 73, (+/−)-4-Oxo-2-[2-(4-oxo-1,2,3-benzotriazin-3(4H)-yl)ethyl]-4-[6-(2-phenylethoxy)-1-benzofur-2-yl]butanoic acid]

More lines, now with the values behind:

Row | SMILES | IC50 (MMP-7) [µM] | IC50 (MMP-8) [µM] | IC50 (MMP-10) [µM] | IC50 (MMP-2) [µM]
9 | O=C(CC(CCn1nnc2ccccc2c1=O)C(=O)O)c1cc2cc(OCCc3ccccc3Cl)ccc2o1 (racemic) [Example 1, (+/−)-4-{5-[2-(2-Chlorophenyl)ethoxy]-1-benzofur-2-yl}-4-oxo-2-[2-(4-oxo-1,2,3-benzotriazin-3(4H)-yl)ethyl]butanoic acid] | > 40 | > 40 | 28 | > 40
10 | O=C(CC(CCn1nnc2ccccc2c1=O)C(=O)O)c1cc2cc(OCCc3ccc(Cl)cc3)ccc2o1 (racemic) [Example 2, (+/−)-4-{5-[2-(4-Chlorophenyl)ethoxy]-1-benzofur-2-yl}-4-oxo-2-[2-(4-oxo-1,2,3-benzotriazin-3(4H)-yl)ethyl]butanoic acid] | > 40 | 14 | 16 | 4.6
11 | O=C(CC(CCn1nnc2ccccc2c1=O)C(=O)O)c1cc2cc(OCC3CCOCC3)ccc2o1 (racemic) [Example 5, (+/−)-4-Oxo-2-[2-(4-oxo-1,2,3-benzotriazin-3(4H)-yl)ethyl]-4-[5-(tetrahydro-2H-pyran-4-ylmethoxy)-1-benzofur-2-yl]butanoic acid] | > 40 | 7.7 | 34 | 5
12 | O=C(CC(CCn1nnc2ccccc2c1=O)C(=O)O)c1cc2cc(OCCC3CCOCC3)ccc2o1 (racemic) [Example 6, (+/−)-4-Oxo-2-[2-(4-oxo-1,2,3-benzotriazin-3(4H)-yl)ethyl]-4-{5-[2-(tetrahydro-2H-pyran-4-yl)ethoxy]-1-benzofur-2-yl}butanoic acid] | > 40 | 3.9 | 7 | 0.43
13 | O=C(CC(CCn1nnc2ccccc2c1=O)C(=O)O)c1cc2cc(OCCC3CCCC3)ccc2o1 (racemic) [Example 7, (+/−)-4-[5-(2-Cyclopentylethoxy)-1-benzofur-2-yl]-4-oxo-2-[2-(4-oxo-1,2,3-benzotriazin-3(4H)-yl)ethyl]butanoic acid] | > 40 | 22 | 9.3 | 0.92
14 | O=C(CC(CCn1nnc2ccccc2c1=O)C(=O)O)c1cc2cc(OCC3CCCCC3)ccc2o1 (racemic) [Example 8, (+/−)-4-[5-(Cyclohexylmethoxy)-1-benzofur-2-yl]-4-oxo-2-[2-(4-oxo-1,2,3-benzotriazin-3(4H)-yl)ethyl]butanoic acid] | > 40 | 30 | > 40 | > 40
